Measured values from patent US20110319464A1, “METHODS FOR TREATING BENIGN PROSTATIC HYPERPLASIA” (KISSEI PHARMACEUTICAL CO., LTD., priority 2007, published 2011).

Tested on: symptoms of BPH
Assay: Study C: 4 mg or 8 mg Silodosin Once Daily (KMD-3213-US021-99), U.S. Phase 2 Study
Assay type: in vivo, human
Description: The 6-week stable dosing period was preceded by a 4-week placebo lead-in and a 2-week titration period. […] Male patients were selected who were at least 45 years of age with signs and symptoms of BPH (AUASS of 13 and maximum urine flow rate between 4 and 15 mL/sec). In addition, the results for IPSS/AUASS for studies A, B, D and E are illustrated in FIGS. 3 to 6, respectively, and the results for Qmax for studies A, B, D and E are illustrated in FIGS. 7 to 10, respectively.

[1] = 4 mg once daily, Visit 3 (Day 29), Post-dose (2-6 hr), LOCF
[2] = 4 mg once daily, Visit 4 (Day 36), LOCF
[3] = 4 mg once daily, Visit 4 (Day 36), Post-dose (2-6 hr), LOCF
[4] = 4 mg once daily, Visit 5 (Day 43), LOCF
[5] = 4 mg once daily, Visit 5 (Day 43), Post-dose (2-6 hr), LOCF
[6] = 4 mg once daily, Visit 6 (Day 64), LOCF
[7] = 4 mg once daily, Visit 6 (Day 64), Post-dose (2-6 hr), LOCF
[8] = 4 mg once daily, Visit 7 (EOS, Day 84), LOCF
[9] = 4 mg once daily, Visit 7 (EOS, Day 84), Post-dose (2-6 hr), LOCF
[10] = 8 mg once daily, Visit 3 (Day 29), Post-dose (2-6 hr), LOCF
[11] = 8 mg once daily, Visit 4 (Day 36), LOCF
[12] = 8 mg once daily, Visit 4 (Day 36), Post-dose (2-6 hr), LOCF
[13] = 8 mg once daily, Visit 5 (Day 43), LOCF
[14] = 8 mg once daily, Visit 5 (Day 43), Post-dose (2-6 hr), LOCF
[15] = 8 mg once daily, Visit 6 (Day 64), LOCF
[16] = 8 mg once daily, Visit 6 (Day 64), Post-dose (2-6 hr), LOCF
[17] = 8 mg once daily, Visit 7 (EOS, Day 84), LOCF
[18] = 8 mg once daily, Visit 7 (EOS, Day 84), Post-dose (2-6 hr), LOCF
[19] = Study C, 4 mg once daily, Week 0
[20] = Study C, 4 mg once daily, Week 1
[21] = Study C, 4 mg once daily, Week 2
[22] = Study C, 4 mg once daily, Week 5
[23] = Study C, 4 mg once daily, Week 8

In the case of `C[C@H](Cc1cc2c(c(C(N)=O)c1)N(CCCO)CC2)NCCOc1ccccc1OCC(F)(F)F` [Silodosin], the “Q-max, Mean (SD)” value [1] is reported as 12.2 (4.4) ml/sec, the “Q-max, Mean change (SD)” value [1] is reported as 2.5 (3.6) ml/sec and the “Q-max, Mean (SD)” value (4 mg once daily, Visit 3 (baseline, Day 29), Pre-dose, LOCF) is reported as 9.7 (3.0) ml/sec. For the same molecule, the “Total IPSS/AUASS Score, Mean (SD)” value (4 mg once daily, Visit 3 (baseline, Day 29), modified intent to treat (LOCF)) was 19.7 (5.1), the “Total IPSS/AUASS Score, Mean (SD)” value [2] was 17.3 (5.6) and the “Total IPSS/AUASS Score, Mean change (SD)” value [2] was −2.4 (4.0). The “Q-max, Mean (SD)” value [3] was 12.4 (4.7) ml/sec, the “Q-max, Mean change (SD)” value [3] was 2.7 (4.4) ml/sec and the “Total IPSS/AUASS Score, Mean (SD)” value [4] was 15.5 (5.6). For the same molecule, the “Total IPSS/AUASS Score, Mean change (SD)” value [4] was −4.2 (4.5), the “Q-max, Mean (SD)” value [5] was 12.2 (4.7) ml/sec and the “Q-max, Mean change (SD)” value [5] was 2.6 (4.2) ml/sec. The “Total IPSS/AUASS Score, Mean (SD)” value [6] was 14.6 (6.0), the “Total IPSS/AUASS Score, Mean change (SD)” value [6] was −5.1 (5.1) and the “Q-max, Mean (SD)” value [7] was 12.0 (4.3) ml/sec. The “Q-max, Mean change (SD)” value [7] was 2.3 (4.1) ml/sec, the “Total IPSS/AUASS Score, Mean (SD)” value [8] was 13.9 (6.0) and the “Total IPSS/AUASS Score, Mean change (SD)” value [8] was −5.7 (5.5). For the same molecule, the “Q-max, Mean (SD)” value [9] was 12.6 (4.4) ml/sec, the “Q-max, Mean change (SD)” value [9] was 2.9 (4.0) ml/sec and the “Q-max, Mean (SD)” value [10] was 11.7 (3.5) ml/sec. For the same molecule, the “Q-max, Mean change (SD)” value [10] was 2.0 (3.1) ml/sec, the “Q-max, Mean (SD)” value (8 mg once daily, Visit 3 (baseline, Day 29), Pre-dose, LOCF) was 9.6 (2.7) ml/sec and the “Total IPSS/AUASS Score, Mean (SD)” value (8 mg once daily, Visit 3 (baseline, Day 29), modified intent to treat (LOCF)) was 20.8 (5.3). For the same molecule, the “Total IPSS/AUASS Score, Mean (SD)” value [11] was 18.0 (6.0), the “Total IPSS/AUASS Score, Mean change (SD)” value [11] was −2.7 (3.7) and the “Q-max, Mean (SD)” value [12] was 12.5 (4.8) ml/sec. For the same molecule, the “Q-max, Mean change (SD)” value [12] was 2.9 (4.4) ml/sec, the “Total IPSS/AUASS Score, Mean (SD)” value [13] was 16.5 (6.0) and the “Total IPSS/AUASS Score, Mean change (SD)” value [13] was −4.3 (3.9). For the same molecule, the “Q-max, Mean (SD)” value [14] was 12.5 (5.7) ml/sec, the “Q-max, Mean change (SD)” value [14] was 2.9 (5.4) ml/sec and the “Total IPSS/AUASS Score, Mean (SD)” value [15] was 15.9 (6.4). For the same molecule, the “Total IPSS/AUASS Score, Mean change (SD)” value [15] was −4.9 (4.6), the “Q-max, Mean (SD)” value [16] was 12.9 (5.6) ml/sec and the “Q-max, Mean change (SD)” value [16] was 3.2 (5.5) ml/sec. The “Total IPSS/AUASS Score, Mean (SD)” value [17] was 14.0 (6.5), the “Total IPSS/AUASS Score, Mean change (SD)” value [17] was −6.8 (5.8) and the “Q-max, Mean (SD)” value [18] was 13.0 (5.8) ml/sec. The “Q-max, Mean change (SD)” value [18] was 3.5 (5.7) ml/sec, the “Incidence of Adverse Events: Dizziness” value (Study C, 4 mg once daily) was 9.1 % of patients and the “Incidence of Adverse Events: Orthostatic Hypotension” value (Study C, 4 mg once daily) was 4.5 % of patients. The “Incidence of Adverse Events: Syncope” value (Study C, 4 mg once daily) was 0 % of patients, the “Mean Change From Baseline (CFB) in Maximum Flow Rate” value (Study C, 4 mg once daily, 2-6 hrs after 1st dose) was 2.5 mL/s and the IPSS/AUASS baseline value [19] was 19.7. The “Maximum Flow Rate baseline value” [19] was 9.7 mL/s, the “Mean Change From Baseline (CFB) in IPSS/AUASS” value [20] was −2.4 and the “Mean Change From Baseline (CFB) in Maximum Flow Rate” value [20] was 2.7 mL/s. The “Mean Change From Baseline (CFB) in IPSS/AUASS” value [21] was −4.2, the “Mean Change From Baseline (CFB) in Maximum Flow Rate” value [21] was 2.6 mL/s and the “Mean Change From Baseline (CFB) in IPSS/AUASS” value [22] was −5.1. The “Mean Change From Baseline (CFB) in Maximum Flow Rate” value [22] was 2.3 mL/s, the “Mean Change From Baseline (CFB) in IPSS/AUASS” value [23] was −5.7 and the “Mean Change From Baseline (CFB) in Maximum Flow Rate” value [23] was 2.9 mL/s. The “Incidence of Adverse Events: Dizziness” value (Study C, 8 mg once daily) was 5.6 % of patients, the “Incidence of Adverse Events: Orthostatic Hypotension” value (Study C, 8 mg once daily) was 3.3 % of patients and the “Incidence of Adverse Events: Syncope” value (Study C, 8 mg once daily) was 0 % of patients.
